# Assay results taken from US20100092526A1, “NANOEMULSION THERAPEUTIC COMPOSITIONS AND METHODS OF USING THE SAME” (NanoBio Corporation, priority 2008, published 2010).
# Several values for one entry are separate records, joined by “and”; a condition that tells them apart may be missing. Identical values can stand only once. Like-named read-outs stand apart in the source and are kept apart here.
# What was measured:
# Assay type in all cases: cell-based
# [1] = tested on: methicillin-resistant Staphylococcus aureus (MRSA); experiment: Susceptibility (MIC/MBC) of MRSA clinical isolates; conditions: for MBC50(15) / MIC50(15) / MBC90(26) / MIC90(26): 29 MRSA clinical isolates; for MBC50(15) / MIC50(15): rank 15; for MBC90(26) / MIC90(26): rank 26
# [2] = tested on: Acinetobacter strains; experiment: Checkerboard synergy study (FIC/FBC index); conditions: combined with P4075EC+EDTA
# [3] = tested on: Stenotrophomonas strains; experiment: Checkerboard synergy study (FIC/FBC index); conditions: combined with P4075EC+EDTA
# [4] = tested on: Burkholderia strains; experiment: Checkerboard synergy study (FIC/FBC index); conditions: combined with P4075EC+EDTA
# [5] = silver nitrate column, individual MRSA clinical isolates by rank order 1-29
# [6] = individual MRSA clinical isolates, values listed by rank order 1-29
# [7] = share of 10 Acinetobacter strains with synergy
# [8] = share of Stenotrophomonas strains with synergy
# [9] = share of ten Burkholderia strains with synergy
smiles,measurement,setting,value
Cc1cc(NS(=O)(=O)c2ccc(N)cc2)no1 [sulfamethoxazole],MIC90,"[1]; Staphylococcus aureus, MRSA isolates, read-out: MIC90",4 µg/mL
O=[N+]([O-])[O-].[Ag+] [silver nitrate],MIC90,[1]; MRSA isolates,0.00063%
same,MBC50(15),[1]; silver nitrate column,0.0025 µg/mL
same,MIC50(15),[1]; silver nitrate column,0.00031 µg/mL
same,MBC90(26),[1]; silver nitrate column,>0.01 µg/mL
same,MIC90(26),[1]; silver nitrate column,0.00063 µg/mL
same,MBC,[1]; [5],0.01 μg/ml and >0.01 μg/ml (3×) and >0.005 μg/ml (3×) and 0.005 μg/ml and 0.0025 μg/ml (12×) and 0.00125 μg/ml (9×)
same,MIC,[1]; [5],0.0025 μg/ml and 0.00125 μg/ml (2×) and 0.00626 μg/ml (7×) and 0.00312 μg/ml (19×)
CN[C@H](CC(C)C)C(=O)N[C@H]1C(=O)N[C@@H](CC(N)=O)C(=O)N[C@H]2C(=O)N[C@H]3C(=O)N[C@H](C(=O)N[C@H](C(=O)O)c4cc(O)cc(O)c4-c4cc3ccc4O)[C@H](O)c3ccc(c(Cl)c3)Oc3cc2cc(c3O[C@@H]2O[C@H](CO)[C@@H](O)[C@H](O)[C@H]2O[C@H]2C[C@](C)(N)[C@H](O)[C@H](C)O2)Oc2ccc(cc2Cl)[C@H]1O [vancomycin],cidality,"[1]; MRSA, ratio of MBC90/MIC90",bactericidal (A compound or nanoemulsion is defined as bactericidal if its MBC/MIC ratio was ˜4)
same,MIC90,"[1]; Staphylococcus aureus, MRSA",1 µg/mL
CCC[C@@H]1C[C@@H](C(=O)N[C@@H]([C@H]2O[C@H](SC)[C@H](O)[C@@H](O)[C@H]2O)[C@H](C)Cl)N(C)C1 [Clind],MBC50(15),[1],>64 µg/mL
same,MIC50(15),[1],>64 µg/mL
same,MBC90(26),[1],>64 µg/mL
same,MIC90(26),[1],>64 µg/mL
same,MBC,[1]; [6],>64 μg/ml (17×) and >2 μg/ml (10×) and 2 μg/ml and 1 μg/ml
same,MIC,[1]; [6],>64 μg/ml (17×) and 0.125 μg/ml (12×)
CC[C@H]1OC(=O)[C@H](C)[C@@H](O[C@H]2C[C@@](C)(OC)[C@@H](O)[C@H](C)O2)[C@H](C)[C@@H](O[C@@H]2O[C@H](C)C[C@H](N(C)C)[C@H]2O)[C@](C)(O)C[C@@H](C)C(=O)[C@H](C)[C@@H](O)[C@]1(C)O [Eryth],MIC50(15),[1],64 µg/mL
same,MBC,[1]; [6],64 μg/ml and >4 μg/ml (4×)
same,MIC,[1]; [6],64 μg/ml (6×) and 32 μg/ml (3×) and 16 μg/ml and 8 μg/ml and 0.25 μg/ml (4×)
NC[C@H]1O[C@H](O[C@H]2[C@H](O)[C@@H](O[C@H]3O[C@H](CO)[C@@H](O)[C@H](N)[C@H]3O)[C@H](N)C[C@@H]2N)[C@H](N)C[C@@H]1O [Tobra],FBC,[2]; isolate NB31,1.50
same,FIC,[2]; isolate NB31,0.98
same,Synergy (FBC),[2]; isolate NB31,no
same,Synergy (FIC),[2]; isolate NB31,indifferent
same,FBC,[2]; isolate NB32,1.79
same,FIC,[2]; isolate NB32,0.88
same,Synergy (FBC),[2]; isolate NB32,no
same,Synergy (FIC),[2]; isolate NB32,indifferent
same,FBC,[2]; isolate NB33,1.75
same,Synergy (FBC),[2]; isolate NB33,no
same,Synergy (FIC),[2]; isolate NB33,indifferent
same,FBC,[2]; isolate NB34,0.24
same,FIC,[2]; isolate NB34,0.41
same,Synergy (FBC),[2]; isolate NB34,yes
same,Synergy (FIC),[2]; isolate NB34,yes
same,FIC,[2]; isolate NB35,1.21
same,Synergy (FBC),[2]; isolate NB35,no
same,Synergy (FIC),[2]; isolate NB35,indifferent
same,FBC,[2]; isolate NB36,2.29
same,FIC,[2]; isolate NB36,3.30
same,Synergy (FBC),[2]; isolate NB36,no
same,Synergy (FIC),[2]; isolate NB36,indifferent
same,FBC,[2]; isolate NB37,1.72
same,FIC,[2]; isolate NB37,0.75
same,Synergy (FBC),[2]; isolate NB37,no
same,Synergy (FIC),[2]; isolate NB37,indifferent
same,FBC,[2]; isolate NB38,1.57
same,FIC,[2]; isolate NB38,1.05
same,Synergy (FBC),[2]; isolate NB38,no
same,Synergy (FIC),[2]; isolate NB38,indifferent
same,FBC,[2]; isolate NB39,3.52
same,FIC,[2]; isolate NB39,3.30
same,Synergy (FBC),[2]; isolate NB39,no
same,Synergy (FIC),[2]; isolate NB39,indifferent
same,FBC,[2]; isolate NB40,3.01
same,FIC,[2]; isolate NB40,3.01
same,Synergy (FBC),[2]; isolate NB40,no
same,Synergy (FIC),[2]; isolate NB40,indifferent
same,% FBC Synergy,[2]; [7],10%
same,% FIC Synergy,[2]; [7],10%
same,FBC,[3]; isolate NB42,2.15
same,FIC,[3]; isolate NB42,0.14
same,Synergy (FBC),[3]; isolate NB42,indifferent
same,Synergy (FIC),[3]; isolate NB42,yes
same,FBC,[3]; isolate NB43,2.29
same,FIC,[3]; isolate NB43,1.40
same,Synergy (FBC),[3]; isolate NB43,indifferent
same,Synergy (FIC),[3]; isolate NB43,indifferent
same,FBC,[3]; isolate NB44,2.86
same,FIC,[3]; isolate NB44,1.5
same,Synergy (FBC),[3]; isolate NB44,indifferent
same,Synergy (FIC),[3]; isolate NB44,indifferent
same,FBC,[3]; isolate NB45,1.50
same,FIC,[3]; isolate NB45,0.97
same,Synergy (FBC),[3]; isolate NB45,indifferent
same,Synergy (FIC),[3]; isolate NB45,indifferent
same,FBC,[3]; isolate Steno 1,1.57
same,FIC,[3]; isolate Steno 1,0.79
same,Synergy (FBC),[3]; isolate Steno 1,indifferent
same,Synergy (FIC),[3]; isolate Steno 1,indifferent
same,FBC,[3]; isolate Steno 2,2.23
same,FIC,[3]; isolate Steno 2,0.04
same,Synergy (FBC),[3]; isolate Steno 2,indifferent
same,Synergy (FIC),[3]; isolate Steno 2,yes
same,FBC,[3]; isolate Steno 3,1.29
same,FIC,[3]; isolate Steno 3,0.79
same,Synergy (FBC),[3]; isolate Steno 3,indifferent
same,Synergy (FIC),[3]; isolate Steno 3,indifferent
same,FBC,[3]; isolate Steno 4,1.61
same,FIC,[3]; isolate Steno 4,1.72
same,Synergy (FBC),[3]; isolate Steno 4,indifferent
same,Synergy (FIC),[3]; isolate Steno 4,indifferent
same,FBC,[3]; isolate Steno 6,0.89
same,FIC,[3]; isolate Steno 6,0.59
same,Synergy (FBC),[3]; isolate Steno 6,indifferent
same,Synergy (FIC),[3]; isolate Steno 6,indifferent
same,FBC,[3]; isolate Steno 8,1.15
same,FIC,[3]; isolate Steno 8,0.63
same,Synergy (FBC),[3]; isolate Steno 8,indifferent
same,Synergy (FIC),[3]; isolate Steno 8,indifferent
same,% FBC Synergy,[3]; [8],0%
same,% FIC Synergy,[3]; [8],20%
same,FBC,[4]; isolate NB21,0.48
same,FIC,[4]; isolate NB21,0.27
same,Synergy (FBC),[4]; isolate NB21,yes
same,Synergy (FIC),[4]; isolate NB21,yes
same,FBC,[4]; isolate NB22,1.23
same,FIC,[4]; isolate NB22,0.35
same,Synergy (FBC),[4]; isolate NB22,indifferent
same,Synergy (FIC),[4]; isolate NB22,yes
same,FBC,[4]; isolate NB23,1.09
same,FIC,[4]; isolate NB23,1.06
same,Synergy (FBC),[4]; isolate NB23,indifferent
same,Synergy (FIC),[4]; isolate NB23,indifferent
same,FBC,[4]; isolate NB24,1.36
same,FIC,[4]; isolate NB24,1.31
same,Synergy (FBC),[4]; isolate NB24,indifferent
same,Synergy (FIC),[4]; isolate NB24,indifferent
same,FBC,[4]; isolate NB25,0.99
same,FIC,[4]; isolate NB25,1.45
same,Synergy (FBC),[4]; isolate NB25,indifferent
same,Synergy (FIC),[4]; isolate NB25,indifferent
same,FBC,[4]; isolate NB26,0.92
same,FIC,[4]; isolate NB26,0.12
same,Synergy (FBC),[4]; isolate NB26,indifferent
same,Synergy (FIC),[4]; isolate NB26,yes
same,FBC,[4]; isolate NB27,1.27
same,FIC,[4]; isolate NB27,1.44
same,Synergy (FBC),[4]; isolate NB27,indifferent
same,Synergy (FIC),[4]; isolate NB27,indifferent
same,FBC,[4]; isolate NB28b,1.06
same,FIC,[4]; isolate NB28b,0.54
same,Synergy (FBC),[4]; isolate NB28b,indifferent
same,Synergy (FIC),[4]; isolate NB28b,yes
same,FBC,[4]; isolate NB29,0.07
same,FIC,[4]; isolate NB29,0.32
same,Synergy (FBC),[4]; isolate NB29,yes
same,Synergy (FIC),[4]; isolate NB29,yes
same,FBC,[4]; isolate NB30,0.54
same,FIC,[4]; isolate NB30,0.27
same,Synergy (FBC),[4]; isolate NB30,yes
same,Synergy (FIC),[4]; isolate NB30,yes
same,% FBC Synergy,[4]; [9],30%
same,% FIC Synergy,[4]; [9],50%
